Results: paper PMC10825690, “Crystal structures of human immune protein FIBCD1 suggest an extended binding site compatible with recognition of pathogen-associated carbohydrate motifs” (The Journal of Biological Chemistry, 2023)
Positions count from the first letter of the chain named.

Columns and labels:
[1] = target: T1, wildtype (WT) FIBCD1-FReD (Homo sapiens, UniProt Q8N539); test: Repeated ELISA inhibition of wildtype FIBCD1-FReD (CHO expressed) binding to AcBSA; conditions: ELISA repeated measurements, mean ± SD, eight experiments
T1 construct: FIBCD1-FReD (residues 236–461) was expressed in Sf9 insect cells; IgG K signal peptide (N); made in house; host or cells: CHO cells (ExpiCHO system, pcDNA3.1+)
T1 sequence (Q8N539 236-461): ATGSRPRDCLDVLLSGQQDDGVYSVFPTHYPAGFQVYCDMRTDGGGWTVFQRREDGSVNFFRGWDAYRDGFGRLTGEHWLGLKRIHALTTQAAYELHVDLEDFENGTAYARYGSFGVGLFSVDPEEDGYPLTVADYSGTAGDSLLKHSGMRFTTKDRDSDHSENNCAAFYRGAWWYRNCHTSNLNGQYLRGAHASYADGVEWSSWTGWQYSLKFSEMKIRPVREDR
Description: To study the finer details of short oligomer recognition, binding of GlcNAc, (GlcNAc)2, and (GlcNAc)3 was further investigated by ELISA.
(§1) The cloning, expression, and purification of FIBCD1-FReD have been described in detail ([1]). Briefly, for the protein used for the ligand-bound crystal structures, the initial enzyme-linked immunosorbent inhibition assay (ELISA) and the MST affinity assay, FIBCD1-FReD (residues 236–461) was expressed in Sf9 insect cells using the pNT-Bac vector expression system. The recombinant FIBCD1-FReD variants used for the native crystal structure and for the repeated measurements of (GlcNAc)n n = 1, 2, 3 inhibition by ELISA, the same fragments of FIBCD1-FReD (wildtype, H396A, and K381L) were expressed in Chinese hamster ovary (CHO) cells using the ExpiCHO expression system (ThermoFisher Scientific) with FIBCD1-FReD (including the IgG K signal peptide for secretion) cloned into the pcDNA3.1+ plasmid (Genscript). Purification of the FIBCD1-FReD variants, regardless of the expression system, was achieved through affinity chromatography using acetylated Toyopearl AF-Amino-650M resin (Tosoh) followed by ion-exchange chromatography using a Resource Q ion-exchange column (GE Healthcare) as outlined in Schlosser et al. (Ref ([1])).
(§2) The specificity of the binding of recombinant FIBCD1-FReD, expressed in insect cells, to AcBSA was assayed in technical duplicates by inhibition with acetylated compounds, including GlcNAc (Sigma-Aldrich) and three N-acetylchitooligosaccharides of defined length ((GlcNAc)3, (GlcNAc)5, and (GlcNAc)11) and acetylation (66%), which were kindly provided by Professor Morten Sølie (Norwegian University of Life Sciences). The monoclonal antibodies used in the study here were generated in-house at the University of Southern Denmark and chosen from a large series of monoclonal antibodies raised against the FReD domain (human) in FIBCD1-deficient mice—details for the production are given in ([3]). […]

[2] = target: T2, mutant variant H396A FIBCD1-FReD (Homo sapiens, UniProt Q8N539, H396A); test: Repeated ELISA inhibition of H396A FIBCD1-FReD (CHO expressed) binding to AcBSA; conditions: ELISA repeated measurements, mean ± SD, five experiments
T2 construct: FIBCD1-FReD (residues 236–461) was expressed in Sf9 insect cells; IgG K signal peptide (N); made in house; host or cells: CHO cells (ExpiCHO system, pcDNA3.1+)
T2 sequence (Q8N539 236-461 H396A): T1 sequence (Q8N539 236-461) with H161A
Description: (§3) For S1(2), the mutation K381L was chosen to block this site. In the crystal structure of the homologous protein ficolin-3 the overall topology of this pocket is similar but the Leu381 side chain extends into the site and a similar orientation in FIBCD1 would preclude the ligand binding in this pocket (see Fig. S5). […] For the S1(3) site, the mutation H396A was used. There is no significant difference in affinity for H396A compared with wildtype for each GlcNAc ligand investigated (see Fig. S6C).
as §1
(§4) The specificity of the binding of recombinant FIBCD1-FReD, expressed in insect cells, to AcBSA was assayed in technical duplicates by inhibition with acetylated compounds, including GlcNAc (Sigma-Aldrich) and three N-acetylchitooligosaccharides of defined length ((GlcNAc)3, (GlcNAc)5, and (GlcNAc)11) and acetylation (66%), which were kindly provided by Professor Morten Sølie (Norwegian University of Life Sciences). […]

FIBCD1-FReD [3] = target: T3, FIBCD1-FReD (Homo sapiens, UniProt Q8N539); test: ELISA inhibition of FIBCD1-FReD (insect cell expressed) binding to immobilized AcBSA; conditions: insect cell expressed FIBCD1-FReD 50 ng/ml, 5 mM CaCl2, mean ± SD, three to four experiments
T3 construct: FIBCD1-FReD (residues 236–461) was expressed in Sf9 insect cells; made in house; host or cells: Sf9 insect cells (pNT-Bac vector)
T3 sequence (Q8N539 236-461): T1 sequence (Q8N539 236-461)
Procedure: (§5) The binding of FIBCD1-FReD with GlcNAc, (GlcNAc)3, and longer N-acetylchitooligosaccharides of defined length ((GlcNAc)5 and (GlcNAc)11) was investigated by ELISA. The relative affinity for these carbohydrates was assessed by inhibiting the binding of FIBCD1 to immobilized acetylated bovine serum albumin (AcBSA) in microtiter plates. […] The ligand-binding properties of FIBCD1-FReD were further evaluated using microscale thermophoresis (MST) measurements.
as §1, §4

FIBCD1-FReD [4] = target: T3, FIBCD1-FReD; test: Microscale thermophoresis (MST) affinity assay; format: binding; conditions: for Kd: labeled FIBCD1-FReD 30 nM, TBS/Tw 5 mM CaCl2, 25 °C, mean ± SD, three to four measurements
Procedure: as §5, §1
The affinity between recombinant FIBCD1-FReD and the acetylated sugars GlcNAc, (GlcNAc)5 and ManNAc as well as AcBSA was determined by MST. FIBCD1-FReD expressed by insect cells was labeled using the Monolith NT Protein Labeling Kit RED-NHS (NanoTemper Technologies) according to the manufacturer’s instructions. Removal of unreacted dye was performed with the supplied columns equilibrated in TBS containing 5 mM CaCl2. Labeled FIBCD1-FReD was diluted in assay buffer (TBS/Tw containing 5 mM CaCl2) and used at a constant concentration of 30 nM throughout the experiments, whereas the putative ligands were titrated in 2-fold dilutions, ranging from 0.6 nM to 10 μM (AcBSA), 100 μM to 200 mM (GlcNAc), 50 μM to 100 mM (GlcNAc)5, and 250 μM to 500 mM (ManNAc). For the measurements, all ligands were incubated with labeled FIBCD1-FReD for 20 min at RT (21–22 °C) before being loaded into standard capillaries (NanoTemper Technologies). […] Data from three to four independently pipetted experiments were analyzed using the NanoTemper Analysis 1.2.20 software and used to fit the data for determination of the Kd values.

FIBCD1 = tested on: FIBCD1; set-up: method as in PMID 19710473; conditions: comparison with GlcNAc; cited from earlier work
[5] = target: T4, FIBCD1-FReD mutant variant K381L (Homo sapiens, UniProt Q8N539, K381L); test: ELISA binding of K381L FIBCD1-FReD to AcBSA; conditions: two different detection antibodies (clones 11-14-25 and 11-14-13)
T4 construct: FIBCD1-FReD (residues 236–461) was expressed in Sf9 insect cells; IgG K signal peptide (N); made in house; host or cells: CHO cells (ExpiCHO system, pcDNA3.1+)
T4 sequence (Q8N539 236-461 K381L): T1 sequence (Q8N539 236-461) with K146L
Description: as §3, §2

Row | Molecule | IC50 [1] [mM] | IC50 [2] [mM] | IC50 (FIBCD1-FReD [3]) [µM] | Kd (FIBCD1-FReD [4]) [mM] | other results
1 | CC(=O)N[C@H]1[C@H](O[C@H]2[C@H](O)[C@@H](NC(C)=O)C(O)O[C@@H]2CO)O[C@H](CO)[C@@H](O)[C@@H]1O (stereo partly drawn) [(GlcNAc)2, N,N′-diacetylchitobiose] | 1.4 ± 0.16 | 1.4 ± 0.11 | – | – | –
2 | CC(=O)N[C@@H]1C(O)O[C@H](CO)[C@@H](O)[C@@H]1O (stereo partly drawn) [ManNAc, N-acetyl-D-mannosamine] | – | – | – | 31 ± 8 | –
3 | CC(=O)N[C@H]1[C@H]([C@H](O)[C@H](O)CO)OC(O)(C(=O)O)C[C@@H]1O (stereo partly drawn) [Neu5Ac, N-acetylneuraminic acid] | – | – | – | – | IC50 relative to GlcNAc (FIBCD1): lower IC50 than GlcNAc
4 | AcBSA: acetylated bovine serum albumin, poly-acetylated model ligand | – | – | – | – | binding of K381L FIBCD1-FReD to AcBSA in ELISA [5]: did not bind

More lines, main results first:

Row | IC50 [1] [mM] | IC50 [2] [mM] | IC50 (FIBCD1-FReD [3]) [µM] | Kd (FIBCD1-FReD [4]) [mM] | Molecule | other results
5 | 1.1 ± 0.1 | 1.2 ± 0.14 | 500 ± 60 | – | CC(=O)N[C@H]1[C@H](O[C@H]2[C@H](O)[C@@H](NC(C)=O)C(O)O[C@@H]2CO)O[C@H](CO)[C@@H](O[C@@H]2O[C@H](CO)[C@@H](O)[C@H](O)[C@H]2NC(C)=O)[C@@H]1O (stereo partly drawn) [(GlcNAc)3] | –
6 | 2.2 ± 0.19 | 2.4 ± 0.22 | 2000 ± 220 | 27 ± 9 | CC(=O)N[C@@H]1[C@@H](O)[C@H](O)[C@@H](CO)O[C@H]1O [GlcNAc, N-acetylglucosamine] | –
7 | – | – | 100 ± 30 | 1.2 ± 0.4 | (GlcNAc)5 | fold difference in affinity (Kd) between GlcNAc and (GlcNAc)5 (FIBCD1-FReD [4]; MST, GlcNAc Kd versus (GlcNAc)5 Kd): 23 fold
